This is an account of results in patent US20250326769A1, “HETEROAROMATIC MACROCYCLIC ETHER CHEMOTHERAPEUTIC AGENTS” (Nuvalent, Inc., priority 2022, published 2025).

Experiment [1] concerns the target Ba/F3 EML4-ALK v1 I1171N/D1203N (Homo sapiens (Human), UniProt Q9HC35+Q9UM73, D1203N/I1171N). Put plainly: Ba/F3 cell proliferation assay, EML4-ALK v1 I1171N/D1203N. Particulars: for IC50: Ba/F3 stable cells, 72 hours, CellTiter-Glo; for ETV6-TRKB / EML4-ALK v1 I1171N/D1203N: TRKB selectivity, ratio of Ba/F3 IC50 values. It counts as cell-based. A digest of the protocol:
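Viability read by CellTiter-Glo luminescence after 72 h exposure to a 3-fold compound dilution series, with IC50 from four-parameter logistic regression. Cells were Ba/F3 rendered IL-3-independent through retroviral expression of EML4-ALK v1 I1171N/D1203N, puromycin-selected.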

Experiment [2] has as its target Ba/F3 ETV6-TRKB (Homo sapiens, UniProt Q16620). Put plainly: Ba/F3 cell proliferation assay, ETV6-TRKB. It counts as cell-based. Particulars: Ba/F3 stable cells, 72 hours, CellTiter-Glo; read-out: ETV6-TRKB IC50. A digest of the protocol: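 Growth inhibition after 72 h compound exposure (3-fold series) was measured by CellTiter-Glo in IL-3-independent Ba/F3 cells stably expressing ETV6-TRKB. A four-parameter logistic fit of percent inhibition versus concentration gave IC50.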

Experiment [3] concerns the target TRKB-wt (Homo sapiens (Human), UniProt Q16620). Put plainly: Biochemical kinase assay, TRKB-wt. Particulars: apparent inhibitory constant, kinase domain, Morrison equation; read-out: TRKB-wt Ki^app. On the procedure:
First, 250 nL of compound dissolved in DMSO (100-fold of the desired concentration) was dispensed into a 384-well plate. A 12.5 μL substrate solution containing ATP (2 mM) and fluorogenic phosphorylation substrate AQT0101 ([…] for ALK and ROS, AssayQuant) or AQT0104 (26 μM for TRKB, AssayQuant) in buffer (50 mM HEPES pH 7.5, […], 0.5 mM EGTA, 10 mM MgCl2) was added and mixed thoroughly. Then, a 12.5 μL kinase solution containing ALK (1.5 nM, Carna, 08-518), ALK I1171N/D1203N (4 nM, SignalChem, custom-made), ROS1 (0.6 nM, Carma, 08-163), ROS1-G2032R (0.5 nM, SignalChem, R14-121BG), or TRKB-wt (1.5 nM, SignalChem, N17-11G) kinase domains in buffer ([…] pH 7.5, 0.01% Brij-[…], 0.4 mg/mL BSA, 0.5 mM EGTA, and 10 mM MgCl2) was added and mixed thoroughly. The plate was sealed and read by SpectraMax Paradigm at λ=485 nm every 2 minutes for 120 minutes at 30° C. Initial rates of reaction (v) were calculated from the change in fluorescence intensity over time during the initial, linear portion of the reaction. Finally, apparent inhibitory constants (Ki^app) were determined from regression of v and I (inhibitor concentration) to Morrison Equation (E=enzyme concentration): […]
Compound potency can be interpreted by binning Ki^app values against the targets: bin A for high potency, Ki^app<50 nM; bin B for medium potency, 50 nM≤Ki^app<500 nM; and bin C for low potency, Ki^app≥500 nM. […] “nd” means not determined.

The target of experiment [4] is Ba/F3 EML4-ALK v1 I1171N (Homo sapiens (Human), UniProt Q9HC35+Q9UM73, I1171N). Put plainly: Ba/F3 cell proliferation assay, EML4-ALK v1 I1171N. Particulars: for IC50: Ba/F3 stable cells, 72 hours, CellTiter-Glo; for ETV6-TRKB / EML4-ALK v1 I1171N: TRKB selectivity, ratio of Ba/F3 IC50 values. The experiment is classed as cell-based. An excerpt: Genes encoding EML4-ALK v1 (variant 1), EML4-ALK v1 G1202R, EML4-ALK v1 I1171IN, EML4-ALK v1 D1203N, EML4-ALK v1 I1171N/D1203N, and ETV6-TRKB were synthesized at GeneRay, cloned into the retroviral construct pMSCV-puro (Biovector), and packaged into retroviral particles. The virus was used to infect Ba/F3 cells (RIKEN) at multiplicity of infection=1 for 1 day. Infected cells were rescued in media (RPMI-1640 with 10% fetal bovine serum and 1% streptomycin and penicillin) supplemented with mouse IL-3 (10 ng/mL) for 2 days, and stable cell lines were selected by IL-3 withdrawal and puromycin (0.8 μg/mL) for 7 days. Monoclones were selected by single-cell dilution in IL-3-free medium containing puromycin (0.8 μg/mL). Transformation of desired genes was confirmed by Sanger sequencing and western blot using the following antibodies: ALK (CST #3633) and pan-TRK (Abcam #76291).
Stable cells were plated in a 384-well plate. Test compounds were then added in a 3-fold dilution series and incubated for 72 hours. CellTiter-Glo reagent (Promega) was added. Luminescence was measured on a plate reader. Half-maximal inhibitory concentration (ICso) was calculated from percent inhibition and inhibitor concentration using four-parameter logistic regression. Compound potency can be interpreted by binning IC50 values: bin A for high potency, 0.1 nM IC50<50 nM; bin B for medium potency, 50 nM<IC50<500 nM; and bin C for low potency, IC50>500 nM. […] Exemplary data is given in Table 4 (nd is not determined).
Ba/F3 proliferation is driven by the transduced oncogenes in the same way that cancer cell proliferation in humans is driven by the expression of equivalent oncogenes.
TRKB selectivity was calculated by dividing a compound's TRKB potency by its primary target potency (e.g., ETV6-TRKB IC50/EML4-ALK v1 IC50). Compound selectivity can be interpreted by binning ratio values: bin A for very high selectivity, ratio≥30-fold; bin B for high selectivity, ratio≥10-fold but<30; bin C for moderate selectivity, ratio≥1 but<10; and bin D for low selectivity, ratio<1. […] (nd=not determined).

Sequence of Ba/F3 EML4-ALK v1 I1171N (Q9UM73 other isoform, or with tags, fused parts or gaps I1171N): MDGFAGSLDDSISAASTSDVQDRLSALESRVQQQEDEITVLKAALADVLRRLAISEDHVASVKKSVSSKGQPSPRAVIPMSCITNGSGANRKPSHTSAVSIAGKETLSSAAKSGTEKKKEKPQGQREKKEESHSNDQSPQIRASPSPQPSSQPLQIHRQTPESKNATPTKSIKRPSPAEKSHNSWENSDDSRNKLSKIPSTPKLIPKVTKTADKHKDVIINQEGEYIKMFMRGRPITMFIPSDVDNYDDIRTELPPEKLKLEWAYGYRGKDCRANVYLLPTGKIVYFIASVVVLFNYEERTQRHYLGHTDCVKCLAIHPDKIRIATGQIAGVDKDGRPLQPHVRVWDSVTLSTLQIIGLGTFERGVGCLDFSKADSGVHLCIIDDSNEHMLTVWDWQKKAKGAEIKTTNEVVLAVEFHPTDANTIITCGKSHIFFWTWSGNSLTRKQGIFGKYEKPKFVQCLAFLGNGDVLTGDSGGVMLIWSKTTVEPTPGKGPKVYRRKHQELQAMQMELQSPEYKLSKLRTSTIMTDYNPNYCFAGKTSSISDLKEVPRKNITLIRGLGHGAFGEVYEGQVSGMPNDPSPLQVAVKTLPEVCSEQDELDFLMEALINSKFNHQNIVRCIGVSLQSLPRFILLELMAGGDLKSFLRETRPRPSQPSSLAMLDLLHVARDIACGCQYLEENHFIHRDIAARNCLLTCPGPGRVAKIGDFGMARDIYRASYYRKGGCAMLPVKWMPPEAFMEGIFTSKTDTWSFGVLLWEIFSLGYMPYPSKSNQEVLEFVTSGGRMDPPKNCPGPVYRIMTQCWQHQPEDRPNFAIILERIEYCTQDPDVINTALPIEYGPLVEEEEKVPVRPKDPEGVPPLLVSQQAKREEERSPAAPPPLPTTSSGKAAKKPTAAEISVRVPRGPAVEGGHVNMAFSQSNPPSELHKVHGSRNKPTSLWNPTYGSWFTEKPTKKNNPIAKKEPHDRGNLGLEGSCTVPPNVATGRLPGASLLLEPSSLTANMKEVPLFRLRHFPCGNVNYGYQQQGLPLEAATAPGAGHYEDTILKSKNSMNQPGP
Sequence of TRKB-wt (Q16620 538-807): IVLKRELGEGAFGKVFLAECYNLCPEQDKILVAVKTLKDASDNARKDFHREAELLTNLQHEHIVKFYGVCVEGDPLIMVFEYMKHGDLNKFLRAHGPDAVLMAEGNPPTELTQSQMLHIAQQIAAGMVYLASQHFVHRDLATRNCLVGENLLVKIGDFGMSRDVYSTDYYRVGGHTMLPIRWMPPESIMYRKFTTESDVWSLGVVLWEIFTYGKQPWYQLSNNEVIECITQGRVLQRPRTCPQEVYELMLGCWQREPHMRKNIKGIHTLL
Sequence of Ba/F3 EML4-ALK v1 I1171N/D1203N (Q9UM73 other isoform, or with tags, fused parts or gaps I1171N/D1203N): as the sequence (Q9UM73 other isoform, or with tags, fused parts or gaps I1171N) above, with D642N counted along it
Sequence of Ba/F3 ETV6-TRKB (Q16620 32-822 limits assumed, change not shown): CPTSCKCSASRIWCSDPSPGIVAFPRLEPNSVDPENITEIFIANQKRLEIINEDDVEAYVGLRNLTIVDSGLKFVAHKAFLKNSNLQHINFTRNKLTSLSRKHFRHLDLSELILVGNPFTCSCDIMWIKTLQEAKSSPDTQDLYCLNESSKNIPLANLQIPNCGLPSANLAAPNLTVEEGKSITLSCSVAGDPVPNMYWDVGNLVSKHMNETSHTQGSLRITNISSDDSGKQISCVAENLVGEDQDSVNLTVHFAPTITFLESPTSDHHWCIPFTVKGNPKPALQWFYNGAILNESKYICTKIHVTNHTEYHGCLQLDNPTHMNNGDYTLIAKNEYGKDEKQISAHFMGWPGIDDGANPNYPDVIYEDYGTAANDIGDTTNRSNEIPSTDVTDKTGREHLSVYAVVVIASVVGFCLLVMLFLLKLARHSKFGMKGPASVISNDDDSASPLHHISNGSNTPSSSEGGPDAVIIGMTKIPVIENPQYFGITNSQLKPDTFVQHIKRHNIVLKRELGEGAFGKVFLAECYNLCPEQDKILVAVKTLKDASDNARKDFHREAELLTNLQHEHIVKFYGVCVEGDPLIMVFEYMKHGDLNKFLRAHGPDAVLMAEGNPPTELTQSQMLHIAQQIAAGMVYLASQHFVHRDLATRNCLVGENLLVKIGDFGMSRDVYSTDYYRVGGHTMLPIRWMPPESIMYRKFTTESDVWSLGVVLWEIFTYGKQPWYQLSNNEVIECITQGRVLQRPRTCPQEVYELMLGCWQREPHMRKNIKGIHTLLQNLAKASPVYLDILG

For the molecule `C[C@H]1Oc2cc(cnc2N)-c2c(c(C(N)=O)nn2CC2CC2)Cc2cccnc2-c2ccc(F)cc21` [Example 6, (R)-23-amino-3-(cyclopropylmethyl)-17-fluoro-20-methyl-21-oxa-3,4,12,24-tetraazapentacyclo[20.3.1.0^2,^6.0^8,^13.0^14,^19]hexacosa-1(25),2(6),4,8(13),9,11,14,16, 18,22(26),23-undecaene-5-carboxamide], the IC50 was 0.0001 to 0.05 µM in experiment [1] and greater than 0.5 µM in experiment [2]. Moreover, the Ki in experiment [3] was in the range of 0.05 to 0.5 µM.
On to `CCN(C)C(=O)c1nn(CC2CC2)c2c1Cc1cn(C)nc1-c1ccc(F)cc1[C@@H](C)Oc1cc-2cnc1N` [Example 38, N-ethyl-N-methyl-(R)-22-amino-3-(cyclopropylmethyl)-16-fluoro-10-methyl-19-methyl-20-oxa-3,4,10,11,23-pentaazapentacyclo[19.3.1.0^2,^6.0^8,^12.0^13,^18]pentacosa-1(24),2(6),4,8,11,13,15,17,21(25),22-decaene-5-carboxamide], for which the IC50 in experiment [1] is 0.0001 to 0.05 µM; in experiment [2], greater than 0.5 µM; in experiment [4], 0.0001 to 0.05 µM. In experiment [3], the Ki is 0.05 to 0.5 µM.
`Cc1cc2n(n1)-c1c(F)cc(F)cc1[C@@H](C)Oc1cc(cnc1N)-c1c(c(C(=O)N(C)C)nn1CC1CC1)C2` [Example 44, N,N-dimethyl-(R)-22-amino-3-(cyclopropylmethyl)-14,16-difluoro-10,19-dimethyl-20-oxa-3,4,11,12,23-pentaazapentacyclo[19.3.1.0^2,^6.0^8,^12.0^13,^18]pentacosa-1(24),2(6),4,8, 10,13,15,17,21(25),22-decaene-5-carboxamide]: the results for the IC50 in experiment [1] and in experiment [2] were 0.0001 to 0.05 µM and greater than 0.5 µM, respectively. The Ki in experiment [3] lay within 0.05 to 0.5 µM.
Regarding `C[C@H]1Oc2cc(cnc2N)-c2c(C#N)nn(C(=O)N(C)C)c2Cc2cccnc2-c2c(F)cc(F)cc21` [Example 71, N,N-dimethyl-(R)-23-amino-3-cyano-15,17-difluoro-20-methyl-21-oxa-4,5,12,24-tetraazapentacyclo[20.3.1.0^2,^6.0^8,^13.0^14,^19]hexacosa-1(25),2(6),3,8(13),9,11,14,16,18,22(26),23-undecaene-5-carboxamide], in experiment [1], the IC50 lay within 0.05 to 0.5 µM and the “ETV6-TRKB / EML4-ALK v1 I1171N/D1203N” value is recorded as “B (bin B for high selectivity, ratio≥10-fold but<30)”. Besides, in experiment [2], the IC50 was greater than 0.5 µM. Moreover, in experiment [4], the IC50 lay within 0.05 to 0.5 µM and the “ETV6-TRKB / EML4-ALK v1 I1171N” value is reported as “B (bin B for high selectivity, ratio≥10-fold but<30)”.
Regarding `Cc1ccc2c(n1)-c1ccc(F)cc1[C@@H](C)Oc1cc(cnc1N)-c1c(C#N)nn(C(=O)N(C)C)c1C2` [Example 72, N,N-dimethyl-(R)-23-amino-3-cyano-17-fluoro-11,20-dimethyl-21-oxa-4,5,12,24-tetraazapentacyclo[20.3.1.0^2,^6.0^8,^13.0^14,^19]hexacosa-1(25),2(6),3,8(13),9,11,14,16,18,22(26),23-undecaene-5-carboxamide], the IC50 in experiment [1] is 0.05 to 0.5 µM; in experiment [2] it was greater than 0.5 µM; in experiment [4] it was 0.05 to 0.5 µM. Further, the “ETV6-TRKB / EML4-ALK v1 I1171N/D1203N” value in experiment [1] was “B (bin B for high selectivity, ratio≥10-fold but<30)”. The “ETV6-TRKB / EML4-ALK v1 I1171N” value in experiment [4] is “A (bin A for very high selectivity, ratio≥30-fold)”.
For `Cc1nc2c(s1)C(=O)c1nn(C)c(C#N)c1-c1cnc(N)c(c1)O[C@H](C)c1cc(F)ccc1-2` [Example 73, (R)-22-amino-16-fluoro-4-methyl-10,19-dimethyl-7-oxo-20-oxa-9-thia-4,5,11,23-tetraazapentacyclo[19.3.1.0^2,^6.0^8,^12.0^13,^18]pentacosa-1(24),2,5,8(12),10,13,15,17,21(25),22-decaene-3-carbonitrile], the IC50 in experiment [1] lay within 0.0001 to 0.05 µM; in experiment [2], 0.05 to 0.5 µM; in experiment [4], 0.0001 to 0.05 µM.
On to `C[C@H]1Oc2cc(cnc2N)-c2c(n[nH]c2C#N)C(=O)c2cccnc2-c2c(F)cc(F)cc21` [Example 77, (R)-23-amino-15,17-difluoro-20-methyl-7-oxo-21-oxa-4,5,12,24-NH2 tetraazapentacyclo[20.3.1.0^2,6.0^8,13.0^14,19]hexacosa-1(25),2,5,8,10,12,14,16,18,22(26),23-undecaene-3-carbonitrile], for which the IC50 in experiment [1] was 0.0001 to 0.05 µM; in experiment [2] it was 0.05 to 0.5 µM; in experiment [4], 0.0001 to 0.05 µM. The “ETV6-TRKB / EML4-ALK v1 I1171N/D1203N” value in experiment [1] was “A (bin A for very high selectivity, ratio≥30-fold)”. Moreover, the “ETV6-TRKB / EML4-ALK v1 I1171N” value in experiment [4] is “B (bin B for high selectivity, ratio≥10-fold but<30)”.
On to `C[C@H]1Oc2cc(cnc2N)-c2c(nn(C)c2C#N)C(=O)c2scnc2-c2c(F)cc(F)cc21` [Example 81, (R)-22-amino-14,16-difluoro-4-methyl-19-methyl-7-oxo-20-oxa-9-thia-4,5,11,23-tetraazapentacyclo[19.3.1.0^2,^6.0^8,^12.0^13,^18]pentacosa-1(24),2,5,8(12),10,13,15,17,21(25),22-decaene-3-carbonitrile], for which, in experiment [1], the IC50 is 0.0001 to 0.05 µM and the “ETV6-TRKB / EML4-ALK v1 I1171N/D1203N” value is on record as “A (bin A for very high selectivity, ratio≥30-fold)”. In addition, the IC50 in experiment [2] was greater than 0.5 µM. In experiment [4], the IC50 is 0.0001 to 0.05 µM and the “ETV6-TRKB / EML4-ALK v1 I1171N” value is listed as “A (bin A for very high selectivity, ratio≥30-fold)”.
With `C[C@H]1Oc2nc(cnc2N)-c2c(nn(C)c2C#N)C(=O)c2cccnc2-c2c(F)cc(F)cc21` [Example 82, (R)-23-amino-15,17-difluoro-4-methyl-20-methyl-7-oxo-21-oxa-4,5,12,24,26-pentaazapentacyclo[20.3.1.0^2,6.0^8,13.0^14,19]hexacosa-1(25),2,5,8(13),9,11,14,16,18,22(26),23-undecaene-3-carbonitrile], in experiment [1], the IC50 lay within 0.0001 to 0.05 µM and the “ETV6-TRKB / EML4-ALK v1 I1171N/D1203N” value was “A (bin A for very high selectivity, ratio≥30-fold)”. In experiment [2], the IC50 was in the range of 0.05 to 0.5 µM. Moreover, in experiment [4], the IC50 is 0.0001 to 0.05 µM and the “ETV6-TRKB / EML4-ALK v1 I1171N” value was “C (bin C for moderate selectivity, ratio≥1 but<10)”.
